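Tested at 5 concentrations; 48 h exposure; 96-well plates; endpoints linearly interpolated, else capped at highest concentration. At the GI50, growth is halved.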 Calls of active or inactive are those of the source. Cut-off read from the data, not from the text of the source: active = GI50 up to about 1.1 µM and inactive = higher.
Legend:
Assay in all cases: NCI anticancer screen, dose series, 48 h
OVCAR-4 = test system: OVCAR-4
CAKI-1 = test system: CAKI-1
HOP-62 = test system: HOP-62
SW-620 = test system: SW-620
MCF7 = test system: MCF7
MDA-MB-435 = test system: MDA-MB-435
HOP-92 = test system: HOP-92
SF-268 = test system: SF-268
OVCAR-5 = test system: OVCAR-5
SK-MEL-5 = test system: SK-MEL-5
Malme-3M = test system: Malme-3M
A549 = test system: A549
NCI-H226 = test system: NCI-H226
A498 = test system: A498
HT-29 = test system: HT-29
LOX IMVI = test system: LOX IMVI
OVCAR-3 = test system: OVCAR-3
CCRF-CEM = test system: CCRF-CEM
T47D = test system: T47D
SF-539 = test system: SF-539
M14 = test system: M14
KM12 = test system: KM12
TK-10 = test system: TK-10
MOLT-4 = test system: MOLT-4
SNB-75 = test system: SNB-75
PC-3 = test system: PC-3
SK-MEL-28 = test system: SK-MEL-28
SN12C = test system: SN12C
K562 = test system: K562
NCI-H460 = test system: NCI-H460
COLO 205 = test system: COLO 205
UACC-62 = test system: UACC-62
Hs-578T = test system: Hs-578T
SF-295 = test system: SF-295
U-251 = test system: U-251
SNB-19 = test system: SNB-19
OVCAR-8 = test system: OVCAR-8
NCI-H23 = test system: NCI-H23
MDA-MB-231 = test system: MDA-MB-231
HCT-116 = test system: HCT-116
EKVX = test system: EKVX
BT-549 = test system: BT-549
NCI/ADR-RES = test system: NCI/ADR-RES
IGROV-1 = test system: IGROV-1
ACHN = test system: ACHN
MDA-N = test system: MDA-N
HCC 2998 = test system: HCC 2998
786-0 = test system: 786-0
HCT-15 = test system: HCT-15
DU-145 = test system: DU-145
UO-31 = test system: UO-31
SK-OV-3 = test system: SK-OV-3
UACC-257 = test system: UACC-257
RXF 393 = test system: RXF 393
RPMI-8226 = test system: RPMI-8226
SK-MEL-2 = test system: SK-MEL-2
HL-60 = test system: HL-60
NCI-H522 = test system: NCI-H522

CN(C)CCCNC1=C(Cl)C(=O)c2c(O)ccc(O)c2C1=O
GI50 (OVCAR-4): 1.49 µM (inactive)
GI50 (CAKI-1): > 10 µM (inactive)
GI50 (HOP-62): 2.61 µM (inactive)
GI50 (SW-620): 1.82 µM (inactive)
GI50 (MCF7): 1.55 µM (inactive)
GI50 (MDA-MB-435): 1.6 µM (inactive)
GI50 (HOP-92): 8.2 µM (inactive)
GI50 (SF-268): 1 µM (active)
GI50 (OVCAR-5): 1.59 µM (inactive)
GI50 (SK-MEL-5): 1.5 µM (inactive)
GI50 (Malme-3M): 1.84 µM (inactive)
GI50 (A549): 1.66 µM (inactive)
GI50 (NCI-H226): > 10 µM (inactive)
GI50 (A498): > 10 µM (inactive)
GI50 (HT-29): 2.17 µM (inactive)
GI50 (LOX IMVI): 1.67 µM (inactive)
GI50 (OVCAR-3): 2.24 µM (inactive)
GI50 (CCRF-CEM): 2.47 µM (inactive)
GI50 (T47D): 2.09 µM (inactive)
GI50 (SF-539): 1.69 µM (inactive)
GI50 (M14): 1.51 µM (inactive)
GI50 (KM12): 2.99 µM (inactive)
GI50 (TK-10): 3.84 µM (inactive)
GI50 (MOLT-4): 2.58 µM (inactive)
GI50 (SNB-75): 9.04 µM (inactive)
GI50 (PC-3): 2.54 µM (inactive)
GI50 (SK-MEL-28): 1.52 µM (inactive)
GI50 (SN12C): 1.81 µM (inactive)
GI50 (K562): 3.61 µM (inactive)
GI50 (NCI-H460): 2.13 µM (inactive)
GI50 (COLO 205): 1.49 µM (inactive)
GI50 (UACC-62): 1.59 µM (inactive)
GI50 (Hs-578T): 1.28 µM (inactive)
GI50 (SF-295): 1.73 µM (inactive)
GI50 (U-251): 1.74 µM (inactive)
GI50 (SNB-19): 1.94 µM (inactive)
GI50 (OVCAR-8): 3.27 µM (inactive)
GI50 (NCI-H23): 1.65 µM (inactive)
GI50 (MDA-MB-231): 2.9 µM (inactive)
GI50 (HCT-116): 2.26 µM (inactive)
GI50 (EKVX): 3.37 µM (inactive)
GI50 (BT-549): 1.6 µM (inactive)
GI50 (NCI/ADR-RES): 2.44 µM (inactive)
GI50 (IGROV-1): 1.77 µM (inactive)
GI50 (ACHN): 6.1 µM (inactive)
GI50 (MDA-N): 1.85 µM (inactive)
GI50 (HCC 2998): 1.79 µM (inactive)
GI50 (786-0): 1.36 µM (inactive)
GI50 (HCT-15): 1.8 µM
GI50 (DU-145): 1.82 µM (inactive)
GI50 (UO-31): 6.04 µM (inactive)
GI50 (SK-OV-3): > 10 µM (inactive)
GI50 (UACC-257): 1.95 µM (inactive)

COc1ccc2nc(N/N=C/c3sccc3C)cc(C)c2c1
GI50 (OVCAR-4): 21.4 µM (inactive)
GI50 (CAKI-1): > 100 µM (inactive)
GI50 (HOP-62): 16.4 µM (inactive)
GI50 (RXF 393): 19.1 µM (inactive)
GI50 (SW-620): 20.8 µM (inactive)
GI50 (MCF7): 22.5 µM (inactive)
GI50 (MDA-MB-435): 14.1 µM (inactive)
GI50 (HOP-92): 6.07 µM (inactive)
GI50 (SF-268): 16.5 µM (inactive)
GI50 (OVCAR-5): 23.2 µM (inactive)
GI50 (SK-MEL-5): 12.9 µM (inactive)
GI50 (Malme-3M): 17.5 µM (inactive)
GI50 (A549): 20.5 µM (inactive)
GI50 (NCI-H226): 18.8 µM (inactive)
GI50 (A498): 12.2 µM (inactive)
GI50 (HT-29): 8.67 µM (inactive)
GI50 (LOX IMVI): 15.6 µM (inactive)
GI50 (OVCAR-3): 18.8 µM (inactive)
GI50 (CCRF-CEM): 19.5 µM (inactive)
GI50 (T47D): 42.9 µM (inactive)
GI50 (M14): 11.9 µM (inactive)
GI50 (KM12): 22.5 µM (inactive)
GI50 (TK-10): 12 µM (inactive)
GI50 (MOLT-4): 18.7 µM (inactive)
GI50 (SNB-75): 15 µM (inactive)
GI50 (PC-3): 17.1 µM (inactive)
GI50 (SK-MEL-28): 18.1 µM (inactive)
GI50 (SN12C): 19.4 µM (inactive)
GI50 (K562): 38 µM (inactive)
GI50 (NCI-H460): 13.2 µM (inactive)
GI50 (COLO 205): 13.6 µM (inactive)
GI50 (UACC-62): 13.1 µM (inactive)
GI50 (Hs-578T): 18.6 µM (inactive)
GI50 (SF-295): 7.23 µM (inactive)
GI50 (U-251): 15.4 µM (inactive)
GI50 (SNB-19): 29 µM (inactive)
GI50 (OVCAR-8): 37.8 µM (inactive)
GI50 (NCI-H23): 10.1 µM (inactive)
GI50 (MDA-MB-231): 0.406 µM (active)
GI50 (RPMI-8226): 9.38 µM (inactive)
GI50 (SK-MEL-2): 21.6 µM (inactive)
GI50 (HCT-116): 11.6 µM (inactive)
GI50 (EKVX): 18.2 µM (inactive)
GI50 (BT-549): 15.6 µM (inactive)
GI50 (NCI/ADR-RES): 21.6 µM (inactive)
GI50 (IGROV-1): 15.1 µM (inactive)
GI50 (ACHN): 16.3 µM (inactive)
GI50 (MDA-N): 16.5 µM (inactive)
GI50 (HCC 2998): 17.5 µM (inactive)
GI50 (786-0): 14.4 µM (inactive)
GI50 (HCT-15): 14.1 µM
GI50 (DU-145): 19.4 µM (inactive)
GI50 (UO-31): 15.1 µM (inactive)
GI50 (HL-60): 18.3 µM (inactive)
GI50 (SK-OV-3): 13.2 µM (inactive)
GI50 (UACC-257): 17 µM (inactive)

COc1ccc(/C=C/c2cnccn2)cc1OC
GI50 (OVCAR-4): > 10 µM (inactive)
GI50 (CAKI-1): > 10 µM (inactive)
GI50 (HOP-62): > 10 µM (inactive)
GI50 (RXF 393): > 10 µM (inactive)
GI50 (SW-620): > 10 µM (inactive)
GI50 (MCF7): > 10 µM (inactive)
GI50 (MDA-MB-435): > 10 µM (inactive)
GI50 (HOP-92): > 10 µM (inactive)
GI50 (SF-268): > 10 µM (inactive)
GI50 (OVCAR-5): > 10 µM (inactive)
GI50 (SK-MEL-5): > 10 µM (inactive)
GI50 (Malme-3M): > 10 µM (inactive)
GI50 (A549): > 10 µM (inactive)
GI50 (NCI-H226): > 10 µM (inactive)
GI50 (A498): > 10 µM (inactive)
GI50 (NCI-H522): > 10 µM (inactive)
GI50 (HT-29): > 10 µM (inactive)
GI50 (LOX IMVI): > 10 µM (inactive)
GI50 (OVCAR-3): > 10 µM (inactive)
GI50 (T47D): > 10 µM (inactive)
GI50 (SF-539): > 10 µM (inactive)
GI50 (M14): > 10 µM (inactive)
GI50 (KM12): > 10 µM (inactive)
GI50 (TK-10): > 10 µM (inactive)
GI50 (SNB-75): > 10 µM (inactive)
GI50 (PC-3): > 10 µM (inactive)
GI50 (SK-MEL-28): > 10 µM (inactive)
GI50 (SN12C): > 10 µM (inactive)
GI50 (NCI-H460): > 10 µM (inactive)
GI50 (COLO 205): > 10 µM (inactive)
GI50 (UACC-62): > 10 µM (inactive)
GI50 (Hs-578T): > 10 µM (inactive)
GI50 (SF-295): > 10 µM (inactive)
GI50 (U-251): > 10 µM (inactive)
GI50 (SNB-19): > 10 µM (inactive)
GI50 (OVCAR-8): > 10 µM (inactive)
GI50 (NCI-H23): > 10 µM (inactive)
GI50 (MDA-MB-231): > 10 µM (inactive)
GI50 (SK-MEL-2): > 10 µM (inactive)
GI50 (HCT-116): > 10 µM (inactive)
GI50 (EKVX): > 10 µM (inactive)
GI50 (BT-549): > 10 µM (inactive)
GI50 (NCI/ADR-RES): > 10 µM (inactive)
GI50 (IGROV-1): > 10 µM (inactive)
GI50 (ACHN): > 10 µM (inactive)
GI50 (MDA-N): > 10 µM (inactive)
GI50 (HCC 2998): > 10 µM (inactive)
GI50 (786-0): > 10 µM (inactive)
GI50 (HCT-15): > 10 µM
GI50 (DU-145): > 10 µM (inactive)
GI50 (UO-31): > 10 µM (inactive)
GI50 (SK-OV-3): > 10 µM (inactive)
GI50 (UACC-257): > 10 µM (inactive)
